Patent publication US20240109917A1 (ACTELION PHARMACEUTICALS LTD, priority 2020, published 2024)
Read-outs that look alike come from different tables or passages of the source.

Legend:
PDGFRβ = PDGFRβ (Rattus norvegicus (Rat), UniProt Q05030); test: PDGFRβ Cellular Assay (PDGFRb P-Y751 HTRF in A10 cells stimulated with PDGF-BB); type: cell-based
In short: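 Phospho-Y751 PDGFRβ was measured by HTRF in lysates of A10 rat cells. Cells received compound for 3 hours before PDGF-BB stimulation (100 ng/mL working stock).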

[1] = target: His6-TEV-PDGFRβ (557-1016) (Homo sapiens (Human), UniProt P09619); test: PDGFRβ HTRF Assay; type: biochemical; conditions: read-out: PDGFR HTRF IC50
His6-TEV-PDGFRβ (557-1016), sequence (P09619 557-1016): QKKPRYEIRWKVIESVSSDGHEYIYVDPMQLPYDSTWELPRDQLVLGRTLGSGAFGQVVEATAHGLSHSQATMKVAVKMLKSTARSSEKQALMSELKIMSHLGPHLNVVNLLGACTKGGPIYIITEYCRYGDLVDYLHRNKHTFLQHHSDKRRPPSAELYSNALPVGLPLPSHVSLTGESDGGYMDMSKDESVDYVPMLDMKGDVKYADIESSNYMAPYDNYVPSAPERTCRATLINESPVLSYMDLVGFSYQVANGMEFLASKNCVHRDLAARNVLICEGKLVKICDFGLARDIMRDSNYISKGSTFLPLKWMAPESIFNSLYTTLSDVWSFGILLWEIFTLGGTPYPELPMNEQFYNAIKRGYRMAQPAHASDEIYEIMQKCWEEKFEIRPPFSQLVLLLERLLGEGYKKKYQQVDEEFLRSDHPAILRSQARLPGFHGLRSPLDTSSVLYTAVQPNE
In short: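 HTRF KinEASE-TK readout (665/620 nm ratio) of TK-biotin substrate phosphorylation by His-tagged PDGFRβ kinase domain. Enzyme and inhibitor preincubated 30 min, then ATP/substrate added for 3 h at room temperature before 60 min EDTA quench/detection.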

PDGFRβ, sequence (Q05030 32-1097): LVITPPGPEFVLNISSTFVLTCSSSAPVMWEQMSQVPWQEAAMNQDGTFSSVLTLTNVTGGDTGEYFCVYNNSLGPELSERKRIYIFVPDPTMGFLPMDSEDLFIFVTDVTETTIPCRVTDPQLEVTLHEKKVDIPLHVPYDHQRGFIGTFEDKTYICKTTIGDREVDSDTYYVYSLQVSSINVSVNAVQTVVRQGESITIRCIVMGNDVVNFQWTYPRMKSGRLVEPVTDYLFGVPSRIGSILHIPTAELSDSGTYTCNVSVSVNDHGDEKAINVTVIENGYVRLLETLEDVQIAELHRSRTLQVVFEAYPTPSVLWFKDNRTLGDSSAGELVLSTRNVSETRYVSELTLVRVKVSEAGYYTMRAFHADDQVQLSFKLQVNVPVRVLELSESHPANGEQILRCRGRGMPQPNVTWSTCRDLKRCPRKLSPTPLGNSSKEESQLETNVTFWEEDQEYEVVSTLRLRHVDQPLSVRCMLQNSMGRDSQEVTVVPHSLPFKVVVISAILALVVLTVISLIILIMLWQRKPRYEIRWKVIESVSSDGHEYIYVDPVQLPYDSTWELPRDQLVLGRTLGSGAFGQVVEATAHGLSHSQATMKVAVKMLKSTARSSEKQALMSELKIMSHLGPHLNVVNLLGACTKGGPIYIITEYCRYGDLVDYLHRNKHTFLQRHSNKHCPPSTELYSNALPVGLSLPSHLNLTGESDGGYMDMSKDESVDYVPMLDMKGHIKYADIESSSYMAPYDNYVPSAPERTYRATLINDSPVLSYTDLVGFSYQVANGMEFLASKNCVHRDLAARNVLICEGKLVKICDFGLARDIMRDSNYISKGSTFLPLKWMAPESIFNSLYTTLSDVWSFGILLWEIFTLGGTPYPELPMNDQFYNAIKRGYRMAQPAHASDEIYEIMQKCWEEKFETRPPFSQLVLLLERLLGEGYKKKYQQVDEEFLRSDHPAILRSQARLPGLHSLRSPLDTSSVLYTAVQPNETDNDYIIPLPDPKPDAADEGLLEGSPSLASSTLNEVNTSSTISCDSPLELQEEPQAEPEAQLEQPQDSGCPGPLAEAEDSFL

Row | SMILES | IC50 (PDGFRβ; read-out: PDGFR Cellular IC50) | IC50 [1] | IC50 (PDGFRβ; PDGFR Cellular IC50)
1 | Cc1ncc(NC(=O)C[C@@H]2CCCN2C(C)C)cc1NC(=O)c1cnn2cc(-c3cccnc3O)sc12 [Example 322, (S)-2-(2-hydroxypyridin-3-yl)-N-(5-(2-(1-isopropylpyrrolidin-2-yl)acetamido)-2-methylpyridin-3-yl)pyrazolo[5,1-b]thiazole-7-carboxamide] | 122 nM | 0.7 nM | –
2 | Cc1ncc(NC(=O)CN2CCCC(O)C2)cc1NC(=O)c1cnn2cc(-c3cnn(C)c3)sc12 (centres unmarked) [Example 303, N-(5-(2-(3-hydroxypiperidin-1-yl)acetamido)-2-methylpyridin-3-yl)-2-(1-methyl-1H-pyrazol-4-yl)pyrazolo[5,1-b]thiazole-7-carboxamide] | 121 nM | 0.4 nM | –
3 | COc1ncccc1-c1cn2ncc(C(=O)Nc3cc(NC(=O)CN4CCOC(C)(C)C4)cnc3C)c2s1 [Example 319, N-(5-(2-(2,2-dimethylmorpholino)acetamido)-2-methylpyridin-3-yl)-2-(2-methoxypyridin-3-yl)pyrazolo[5,1-b]thiazole-7-carboxamide] | 2.7 nM | 0.3 nM | –
4 | Cc1ncc(NC(=O)[C@@H]2C[C@@H](C)CN2C)cc1NC(=O)c1cnn2cc(-c3cnn(C)c3)sc12 [Example 304, N-(5-((2S,4R)-1,4-dimethylpyrrolidine-2-carboxamido)-2-methylpyridin-3-yl)-2-(1-methyl-1H-pyrazol-4-yl)pyrazolo[5,1-b]thiazole-7-carboxamide] | 9.3 nM | 0.6 nM | –
5 | COCCn1cc(-c2cn3ncc(C(=O)Nc4cc(NC(=O)CN5CCC[C@@H]5C)cnc4C)c3s2)cn1 [Example 325, (S)-2-(1-(2-methoxyethyl)-1H-pyrazol-4-yl)-N-(2-methyl-5-(2-(2-methylpyrrolidin-1-yl)acetamido)pyridin-3-yl)pyrazolo[5,1-b]thiazole-7-carboxamide] | 10.7 nM | 0.8 nM | –
6 | Cc1ncc(NC(=O)CN2CC(C)(C)C2)cc1NC(=O)c1cnn2cc(-c3cnn(CC(N)=O)c3)sc12 [Example 267, 2-(1-(2-amino-2-oxoethyl)-1H-pyrazol-4-yl)-N-(5-(2-(3,3-dimethylazetidin-1-yl)acetamido)-2-methylpyridin-3-yl)pyrazolo[5,1-b]thiazole-7-carboxamide] | 701 nM | 0.9 nM | –
7 | Cc1ncc(NC(=O)CN(C)C2CCOCC2)cc1NC(=O)c1cnn2cc(-c3cnn(C4CCC4)c3)sc12 [Example 296, 2-(1-cyclobutyl-1H-pyrazol-4-yl)-N-(2-methyl-5-(2-(methyl(tetrahydro-2H-pyran-4-yl)amino)acetamido)pyridin-3-yl)pyrazolo[5,1-b]thiazole-7-carboxamide] | 7.6 nM | 0.3 nM | –
8 | CC(=O)Nc1cncc(-c2cn3ncc(C(=O)Nc4cc(NC(=O)CN5CC(C)(C)C5)cnc4C)c3s2)c1 [Example 277, 2-(5-acetamidopyridin-3-yl)-N-(5-(2-(3,3-dimethylazetidin-1-yl)acetamido)-2-methylpyridin-3-yl)pyrazolo[5,1-b]thiazole-7-carboxamide] | 142 nM | 0.4 nM | –
9 | Cc1ncc(NC(=O)CN2CC(C)(C)C2)cc1NC(=O)c1cnn2cc(-c3cnn(C4CS(=O)(=O)C4)c3)sc12 [Example 262, N-(5-(2-(3,3-dimethylazetidin-1-yl)acetamido)-2-methylpyridin-3-yl)-2-(1-(1,1-dioxidothietan-3-yl)-1H-pyrazol-4-yl)pyrazolo[5,1-b]thiazole-7-carboxamide] | 36.9 nM | 0.5 nM | –
10 | Cc1ncc(NC(=O)CN2CC(C)(C)C2)cc1NC(=O)c1cnn2cc(-c3cnn(-c4cccnc4)c3)sc12 [Example 289, N-(5-(2-(3,3-dimethylazetidin-1-yl)acetamido)-2-methylpyridin-3-yl)-2-(1-(pyridin-3-yl)-1H-pyrazol-4-yl)pyrazolo[5,1-b]thiazole-7-carboxamide] | 4.4 nM | 0.3 nM | –
11 | Cc1ncc(NC(=O)CN(C)C2CCOCC2)cc1NC(=O)c1cnn2cc(-c3cnn(CS(C)(=O)=O)c3)sc12 [Example 298, N-(2-methyl-5-(2-(methyl(tetrahydro-2H-pyran-4-yl)amino)acetamido)pyridin-3-yl)-2-(1-((methylsulfonyl)methyl)-1H-pyrazol-4-yl)pyrazolo[5,1-b]thiazole-7-carboxamide] | – | 0.9 nM | 236 nM
12 | Cc1ncc(NC(=O)CN2CC(C)(C)C2)cc1NC(=O)c1cnn2cc(-c3ccc(CO)o3)sc12 [Example 292, N-(5-(2-(3,3-dimethylazetidin-1-yl)acetamido)-2-methylpyridin-3-yl)-2-(5-(hydroxymethyl)furan-2-yl)pyrazolo[5,1-b]thiazole-7-carboxamide] | 4.2 nM | 0.3 nM | –
13 | COCCn1cc(-c2cn3ncc(C(=O)Nc4cc(NC(=O)CN5CCC6(CC6)C5)cnc4C)c3s2)cn1 [Example 326, N-(5-(2-(5-azaspiro[2.4]heptan-5-yl)acetamido)-2-methylpyridin-3-yl)-2-(1-(2-methoxyethyl)-1H-pyrazol-4-yl)pyrazolo[5,1-b]thiazole-7-carboxamide] | – | 0.4 nM | 3 nM
14 | CNC(=O)c1cc(-c2cn3ncc(C(=O)Nc4cc(NC(=O)CN5CC(C)(C)C5)cnc4C)c3s2)ccn1 [Example 274, N-(5-(2-(3,3-dimethylazetidin-1-yl)acetamido)-2-methylpyridin-3-yl)-2-(2-(methylcarbamoyl)pyridin-4-yl)pyrazolo[5,1-b]thiazole-7-carboxamide] | 51.8 nM | 1 nM | –
15 | Cc1ncc(NC(=O)CN2CC(C)(C)C2)cc1NC(=O)c1cnn2cc(-c3c[nH]c4ccccc34)sc12 [Example 287, N-(5-(2-(3,3-dimethylazetidin-1-yl)acetamido)-2-methylpyridin-3-yl)-2-(1H-indol-3-yl)pyrazolo[5,1-b]thiazole-7-carboxamide] | 1.8 nM | 0.1 nM | –
16 | Cc1ncc(NC(=O)CN2CCC3(CCCO3)C2)cc1NC(=O)c1cnn2cc(-c3cnn(C)c3)sc12 (centres unmarked) [Example 21, N-(5-(2-(1-oxa-7-azaspiro[4.4]nonan-7-yl)acetamido)-2-methylpyridin-3-yl)-2-(1-methyl-1H-pyrazol-4-yl)pyrazolo[5,1-b]thiazole-7-carboxamide] | 10.9 nM | 0.7 nM | –
17 | COCCn1cc(-c2cn3ncc(C(=O)Nc4cc(NC(=O)CN5CCC[C@H]5C)cnc4C)c3s2)cn1 [Example 330, (R)-2-(1-(2-methoxyethyl)-1H-pyrazol-4-yl)-N-(2-methyl-5-(2-(2-methylpyrrolidin-1-yl)acetamido)pyridin-3-yl)pyrazolo[5,1-b]thiazole-7-carboxamide] | 6.8 nM | 0.6 nM | –
18 | Cc1ncc(NC(=O)CN2CC(C)(C)C2)cc1NC(=O)c1cnn2cc(-c3cnn(CC#N)c3)sc12 [Example 266, 2-(1-(cyanomethyl)-1H-pyrazol-4-yl)-N-(5-(2-(3,3-dimethylazetidin-1-yl)acetamido)-2-methylpyridin-3-yl)pyrazolo[5,1-b]thiazole-7-carboxamide] | 36.2 nM | 0.7 nM | –
19 | CC[C@H]1CN(CC(=O)Nc2cnc(C)c(NC(=O)c3cnn4cc(-c5cccnc5OC)sc34)c2)CCO1 [Example 311, (S)—N-(5-(2-(2-ethylmorpholino)acetamido)-2-methylpyridin-3-yl)-2-(2-methoxypyridin-3-yl)pyrazolo[5,1-b]thiazole-7-carboxamide] | 2.4 nM | 0.2 nM | –
20 | Cc1ncc(NC(=O)CN2CC(C)(C)C2)cc1NC(=O)c1cnn2cc(-c3cnn(C4COC4)c3)sc12 [Example 264, N-(5-(2-(3,3-dimethylazetidin-1-yl)acetamido)-2-methylpyridin-3-yl)-2-(1-(oxetan-3-yl)-1H-pyrazol-4-yl)pyrazolo[5,1-b]thiazole-7-carboxamide] | 7.6 nM | 0.4 nM | –
21 | Cc1ncc(NC(=O)CN2CCCC2(C)C)cc1NC(=O)c1cnn2cc(-n3ncc4cccnc43)sc12 [Example 259, N-(5-(2-(2,2-dimethylpyrrolidin-1-yl)acetamido)-2-methylpyridin-3-yl)-2-(1H-pyrazolo[3,4-b]pyridin-1-yl)pyrazolo[5,1-b]thiazole-7-carboxamide] | 3.9 nM | 0.4 nM | –
22 | Cc1ncc(NC(=O)OC[C@@H]2CCCN2C)cc1NC(=O)c1cnn2cc(-c3cccc4c3cnn4C)sc12 [Example 257, (S)-(1-methylpyrrolidin-2-yl)methyl (6-methyl-5-(2-(1-methyl-1H-indazol-4-yl)pyrazolo[5,1-b]thiazole-7-carboxamido)pyridin-3-yl)carbamate] | 13.1 nM | 0.2 nM | –
23 | Cc1ncc(NC(=O)CN2CC(C)(C)C2)cc1NC(=O)c1cnn2cc(-c3cnn(C)c3)sc12 [Example 22, N-(5-(2-(3,3-dimethylazetidin-1-yl)acetamido)-2-methylpyridin-3-yl)-2-(1-methyl-1H-pyrazol-4-yl)pyrazolo[5,1-b]thiazole-7-carboxamide] | 5.3 nM | 0.7 nM | –
24 | Cc1ncc(NC(=O)CN(C)C2CCOCC2)cc1NC(=O)c1cnn2cc(-c3cnn(C(F)F)c3)sc12 [Example 295, 2-(1-(difluoromethyl)-1H-pyrazol-4-yl)-N-(2-methyl-5-(2-(methyl(tetrahydro-2H-pyran-4-yl)amino)acetamido)pyridin-3-yl)pyrazolo[5,1-b]thiazole-7-carboxamide] | 21.3 nM | 0.7 nM | –
25 | Cc1ncc(NC(=O)CN2CC(C)(C)C2)cc1NC(=O)c1cnn2cc(-c3cnn(CCO)c3)sc12 [Example 290, N-(5-(2-(3,3-dimethylazetidin-1-yl)acetamido)-2-methylpyridin-3-yl)-2-(1-(2-hydroxyethyl)-1H-pyrazol-4-yl)pyrazolo[5,1-b]thiazole-7-carboxamide] | 19.5 nM | 0.4 nM | –
